Measured values published in paper PMC11868579 (Nature Communications, 2024).
“And” between values parts separate entries of the source, which are not always exact repeats. Equal entries are not always repeated.

Assays:
[1] = molecular target: T1, eIF4E major variant (D127) (Homo sapiens, UniProt P06730); type: binding; details: for LE (ligand efficiency) / Kd: major variant D127 (values in parentheses); for Kd: read-out: eIF4E Kd
T1 construct: made in house; host or cells: E. coli (as described for clone 2983)
T1 sequence (P06730 with tags, fused parts or gaps): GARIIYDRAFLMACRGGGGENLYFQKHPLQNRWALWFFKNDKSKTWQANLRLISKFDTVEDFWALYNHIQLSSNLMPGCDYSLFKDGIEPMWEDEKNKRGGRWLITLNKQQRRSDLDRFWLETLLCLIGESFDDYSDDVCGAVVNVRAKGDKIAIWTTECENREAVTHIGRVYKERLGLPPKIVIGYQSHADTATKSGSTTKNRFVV
Description: ITC experiments were performed on either a MicroCal VP-ITC or a MicroCal Auto-ITC200 at 25 °C in a buffer comprising 50 mM HEPES, 100 mM NaCl, 1 mM TCEP and 5% DMSO at pH 7.5. Typical titrations on the MicroCal VP-ITC were performed using 17 × 16.4 µL injections with a 250 s spacing between each injection and with a stirring speed of 307 rpm. Typical titrations on the MicroCal Auto-ITC200 were performed using 12 × 3 µL injections with a 150 s spacing between each injection and with a stirring speed of 750 rpm. ITC data analyses were performed with Origin 7.0 software using the “One Set of Sites” model.

4E-BP1 binding to eIF4E = molecular target: T2, 4E-BP1 binding to eIF4E (Homo sapiens, UniProt P06730); experiment: Co-immunoprecipitation with eIF4E antibody, immunoblot for 4E-BP1, SW620 lysates; type: biochemical; details: 1–100 µM, 30 min
T2 construct: endogenous in cells; host or cells: SW620 cell lysates
T2 sequence (P06730 2-217 limits assumed): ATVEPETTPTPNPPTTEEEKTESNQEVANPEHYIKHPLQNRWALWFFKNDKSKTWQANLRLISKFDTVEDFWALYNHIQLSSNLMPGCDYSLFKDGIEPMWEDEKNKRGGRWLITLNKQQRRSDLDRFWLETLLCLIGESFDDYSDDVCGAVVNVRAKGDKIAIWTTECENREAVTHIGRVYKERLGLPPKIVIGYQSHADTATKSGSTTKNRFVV
Description: Cells were harvested by trypsinisation and washed with PBS before lysis in MSD lysis buffer (150 mM NaCl, 20 mM Tris pH 7.5, 1 mM EDTA, 1 mM EGTA, 1% Triton X-100) containing protease inhibitors (Roche, complete mini tablet, cat# 11836153001) and phosphatase inhibitors (50 mM NaF and 100 mM Na3VO4). Lysate was placed on ice for 30 min and then cleared in a microfuge at 17,000 x g for 10 min at 4 °C. The protein concentration of the cleared lysate was determined by BCA assay (Pierce) and adjusted to 4 mg/ml with lysis buffer. […] 100 μl of lysate and 100 μl of beads were then incubated with shaking overnight at 4 °C. Samples were then washed 3x with 1 ml PBS, resuspended in 100 μl PBS and boiled for 10 min with 1x SDS-PAGE sample buffer containing 10 μl 1 mM DTT.
After seeding overnight in 6 well plates (Corning, cat#353046), cells were treated with compounds for the indicated times and concentration, harvested and the cell pellet lysed on ice in cell lysis buffer (Cell Signaling, cat#9803), supplemented with 1x Halt^TM protease inhibitor cocktail (Fisher Scientific, cat#78429) and cOmplete^TM protease inhibitor cocktail (Sigma-Aldrich, cat#11836153001) for 1 hr. Protein was quantified using BCA protein kit (Fisher Scientific, cat#23225). […] Quantitative densitometry analysis of protein bands was performed using Image J v1.53 software.

[2] = system: cap-dependent translation; experiment: HeLa in vitro translation assay, cap-dependent reporter; type: biochemical, human; details: for fLuc (CAP) luminescence normalized to DMSO control, Average: HeLa lysate IVT, n=3
Description: HeLa In vitro translation (IVT) assay kits were purchased from Thermo Fisher(cat#88882). Bicistronic reporter mRNA was prepared from using a CMV/T7-renilla luciferase-IRES(FDMV)-firefly luciferase reporter vector as template DNA (supplied by Oxford Genetics Ltd.) using Message Machine T7 Ultra transcription Kit (Thermo Fisher, cat# AM1345) to generate in vitro transcribed mRNA. DNA template was removed with Turbo DNase from the transcription kit and the mRNA purified using RNeasy columns (Qiagen, cat#74204). RNA concentration was adjusted to 1 µg/µl using a Nanodrop. In vitro translation assays were then set up using a HeLa IVT kit according to the manufacturer’s protocol. The reaction was analysed using Dual Glo luciferase reporter assays (Promega, cat#E2920). Compounds were diluted from 100x DMSO stocks 1:10 in PBS and 2.5 µl transferred to 96 well PCR plates (Starlab, cat#I1402-9700). 22.5 µl IVT reaction mix (1.5 mL HeLa lysate, 60 µl RNAsin (Promega, cat#N2115), 300 µl accessory proteins, 600 µl reaction buffer, 200 µl nuclease free water and 30 µl […] mRNA) was added and incubated for 30 min at 30 °C (PCR alphacycler 4, PCRmax, Stone, Staffordshire, UK). The samples were placed on ice for 10 min, then 10 µl was removed and transferred to a white 96 well assay plate (Corning, cat#3917). […]

[3] = system: cap-dependent and cap-independent (IRES) protein synthesis; experiment: Bicistronic protein synthesis reporter in H1299 cells; type: cell-based, human; details: 24 hr; for protein synthesis reporter signal (cap-dependent luciferase / IRES luciferase), replicate values: H1299, normalisation not stated
Description: H1299 cells were transfected with a biscistronic vector using Lipofectamine 3000 transfection reagent (Fisher Scientific, cat#L3000008) for 24 hr and then treated with compounds for further 24 h. Luminescence was measured after 24 h of compound treatment using the Dual Glo luciferase reporter assays as above.

H1299 cells = experiment: CellTiter-Blue cell viability, H1299; type: cell-based, human; details: for Cell viability by cell titre blue assay, Average: H1299, 4 days, n=3
Description: Cell viability was measured by CellTiter-Blue® Cell Viability Assay. Cells were seeded in 96 well plates (Corning, cat#353072) and left overnight. Compounds were added at a range of concentrations and plates incubated at 37 °C for 96 hr. Cell titre blue reagent (Promega, Hampshire, UK, cat# G8081) was added (5 μl/well) and incubated for a further 2 h at 37 °C. Fluorescence (579Ex/584Em) was measured using a PHERAstar plate reader.

eIF4E–4E-BP1 interaction = eIF4E–4E-BP1 interaction (Homo sapiens, UniProt P06730); experiment: Electro-chemiluminescent binding assay, eIF4E:4E-BP1, HeLa cell lysates; type: biochemical; set-up: endogenous in cells; host or cells: HeLa cell lysates; details: for EC50: read-out: Inhibition of PPI in HeLa cells: eIF4E–4E-BP1 interaction, HeLa cell lysates, values in parentheses
Chain of eIF4E–4E-BP1 interaction (P06730 2-217 limits assumed): as above
Description: (§1) This assay uses plates with carbon electrodes and electro-chemiluminescent labels (SULFO-TAGs) that are conjugated to detection antibodies. When an electric current is applied to the plate electrodes the SULFO-TAG labels will emit light that is measured to quantify analytes in the sample. […] The plates were washed with 3 ×150 µl/well MSD wash buffer (cat#R61AA-1; 0.2% Tween-20 in PBS), then blocked with 150 µl/well block buffer (MSD, cat# R93AA) for 1 h. […] The incubated plates were washed 4x in 150 µl in MSD wash buffer and were re-blocked by the addition of 25 μl of blocking buffer containing a 1:500 dilution of the secondary antibody and incubated for 1 hr at RT with rotational shaking. […] Plates were then washed again 4x in 150 µl in MSD wash buffer and 25 μl of a 1:50 dilution of Goat anti-rabbit Sulfo-Tag (MSD, Cat# R32AB-1) in MSD blocking buffer was added and the plates incubated for 1 h at RT with rotational shaking. After a final wash step, 150 μl Read Buffer T4X (MSD, Cat# R92-TC2) was added and the plate read using the MSD QuickPlex SQ 120 plate reader.

eIF4E:eIF4G interaction [4] = molecular target: T3, eIF4E:eIF4G interaction (Homo sapiens, UniProt P06730); experiment: Electro-chemiluminescent binding assay, eIF4E:eIF4G, HeLa cell lysates; type: biochemical; set-up: endogenous in cells; host or cells: HeLa cells (lysates); details: for EC50: n = 4, read-out: Inhibition of PPI in HeLa cells: eIF4E-eIF4G interaction; for binding of eIF4G or 4E-BP1 with eIF4E, luminescence normalised to DMSO control, Average: HeLa, n=3, Fig. 4e
T3 sequence (P06730 2-217 limits assumed): as above
Description: as §1

eIF4E:eIF4G interaction [5] = molecular target: T3, eIF4E:eIF4G interaction; experiment: Electro-chemiluminescent binding assay, eIF4E:eIF4G, H1299 cell lysates; type: biochemical; set-up: endogenous in cells; host or cells: HeLa, SW620 or H1299 cells (lysates; intact H1299 cells in A13); details: for endogenous eIF4E:eIF4G interaction, electro-chemiluminescent signal, Average: n=3, 0 μM control in r69
Description: as §1

[6] = HeLa lysates, 100 µM, 30 min, single experiments Expt 1, Expt 2

SMILES | LE (ligand efficiency) [1] | Kd ([1]; ITC) [nM] | effect on 4E-BP1 binding to eIF4E (co-immunoprecipitation) (4E-BP1 binding to eIF4E) | fLuc (CAP) luminescence normalized to DMSO control, Average ([2]; 1 μM) [%] | fLuc (CAP) luminescence normalized to DMSO control, Average ([2]; 10 μM) [%] | fLuc (CAP) luminescence normalized to DMSO control, Average ([2]; 100 μM) [%] | protein synthesis reporter signal (cap-dependent luciferase / IRES luciferase), replicate values ([3]; 10 μM) | protein synthesis reporter signal (cap-dependent luciferase / IRES luciferase), replicate values ([3]; 25 μM) | Cell viability by cell titre blue assay, Average (H1299 cells; 0.62 uM) | Cell viability by cell titre blue assay, Average (H1299 cells; 1.85 uM) | Cell viability by cell titre blue assay, Average (H1299 cells; 5.56 uM) | Cell viability by cell titre blue assay, Average (H1299 cells; 16.67 uM) | Cell viability by cell titre blue assay, Average (H1299 cells; 50 uM) | EC50 (eIF4E–4E-BP1 interaction) [µM] | EC50 (eIF4E:eIF4G interaction [4]; HeLa cell lysates) [nM] | binding of eIF4G or 4E-BP1 with eIF4E, luminescence normalised to DMSO control, Average (eIF4E:eIF4G interaction [4]; Conc 0.03 μM) [%] | binding of eIF4G or 4E-BP1 with eIF4E, luminescence normalised to DMSO control, Average (eIF4E:eIF4G interaction [4]; Conc 0.1 μM) [%] | binding of eIF4G or 4E-BP1 with eIF4E, luminescence normalised to DMSO control, Average (eIF4E:eIF4G interaction [4]; Conc 0.3 μM) [%] | binding of eIF4G or 4E-BP1 with eIF4E, luminescence normalised to DMSO control, Average (eIF4E:eIF4G interaction [4]; Conc 1 μM) [%] | binding of eIF4G or 4E-BP1 with eIF4E, luminescence normalised to DMSO control, Average (eIF4E:eIF4G interaction [4]; Conc 3 μM) [%] | also measured
CC[C@@H](O[C@H](C)CO)c1ccc(-c2ccccc2F)cc1NCCO [Compound 5] | - (0.3) (kcal/mol)/heavy atom | 3000 | limited effect | 115.8 | 67.5 | 84.6 | 0.991 and 1.031 and 2.154 and 1.191 and 1.096 and 0.294 | 1.003 and 1.037 and 1.187 and 0.927 and 1.046 and 2.532 | 92.413 | 89.367 | 90.001 | 80.933 | 48.944 | > 100 | > 100000 | 75.0 | 70.5 | 80.4 | 86.3 | 81.2 | reduced binding affinity by ITC ([1]; compound 5 versus compound 4): 30 fold; effect on cap-dependent translation ([2]; 1, 10, 100 µM): no significant effect; effect on eIF4G binding (eIF4E:eIF4G interaction [4]; HeLa cell lysates): limited effect on eIF4G binding compared to 4; binding of eIF4G or 4E-BP1 with eIF4E, luminescence normalised to DMSO control, Average (eIF4E:eIF4G interaction [4]; Conc 10 μM): 84.0%; binding of eIF4G or 4E-BP1 with eIF4E, luminescence normalised to DMSO control, Average (eIF4E:eIF4G interaction [4]; Conc 30 μM): 77.0%; binding of eIF4G or 4E-BP1 with eIF4E, luminescence normalised to DMSO control, Average (eIF4E:eIF4G interaction [4]; Conc 100 μM): 75.2%; binding of eIF4G or 4E-BP1 with eIF4E, luminescence normalised to DMSO control, Average (eIF4E:eIF4G interaction [4]; Conc 300 μM): 79.2%; binding of eIF4G or 4E-BP1 with eIF4E, luminescence normalised to DMSO control, Average (eIF4E:eIF4G interaction [4]; Conc 1000 μM): 79.6%; endogenous eIF4E:eIF4G interaction, electro-chemiluminescent signal, Average (eIF4E:eIF4G interaction [5]; 0.1 μM): 815674.7; endogenous eIF4E:eIF4G interaction, electro-chemiluminescent signal, Average (eIF4E:eIF4G interaction [5]; 1 μM): 773437.1; endogenous eIF4E:eIF4G interaction, electro-chemiluminescent signal, Average (eIF4E:eIF4G interaction [5]; 10 μM): 757778.5; inhibition of eIF4G:eIF4E binding (eIF4E:eIF4G interaction [5]; 100 µM): ~ 10%; endogenous eIF4E:eIF4G interaction, electro-chemiluminescent signal, Average (eIF4E:eIF4G interaction [5]; 100 μM): 644050.9
CC[C@H](O[C@H](C)CO)c1ccc(-c2ccccc2F)cc1NCCO [Compound 4] | 0.38 (kcal/mol)/heavy atom | 90 | did not disrupt 4E-BP1 binding to eIF4E | 79.4 | 29.0 | 23.9 | 0.798 and 0.925 and 1.853 and 1.040 and 0.865 and 0.241 | 1.174 and 0.369 and 0.133 and 0.780 and 0.760 and 1.031 | 93.752 | 89.518 | 87.397 | 77.938 | 33.702 | > 100 | 1400 | 97.2 | 114.5 | 82.4 | 79.9 | 54.2 | enthalpy DH ([1]; ITC, eIF4E D127): -10.2 kcal/mol; entropic penalty -TDS ([1]; ITC, eIF4E D127): 0.6 ± 0.4 kcal/mol; inhibitory activity in dual reporter assay ([3]; H1299 cells): lacked inhibitory activity; antiproliferative activity (H1299 cells; H1299, 96 hr): lacked on-target antiproliferative activity; 4E-BP1:eIF4E HeLa, luminescence ratio normalised to DMSO control (eIF4E–4E-BP1 interaction; [6]): 88% and 92%; eIF4G:eIF4E HeLa, luminescence ratio normalised to DMSO control (eIF4E:eIF4G interaction [4]; [6]): 6.4% and 10%; binding of eIF4G or 4E-BP1 with eIF4E, luminescence normalised to DMSO control, Average (eIF4E:eIF4G interaction [4]; Conc 10 μM): 38.7%; binding of eIF4G or 4E-BP1 with eIF4E, luminescence normalised to DMSO control, Average (eIF4E:eIF4G interaction [4]; Conc 30 μM): 33.9%; binding of eIF4G or 4E-BP1 with eIF4E, luminescence normalised to DMSO control, Average (eIF4E:eIF4G interaction [4]; Conc 100 μM): 26.4%; binding of eIF4G or 4E-BP1 with eIF4E, luminescence normalised to DMSO control, Average (eIF4E:eIF4G interaction [4]; Conc 300 μM): 22.8%; binding of eIF4G or 4E-BP1 with eIF4E, luminescence normalised to DMSO control, Average (eIF4E:eIF4G interaction [4]; Conc 1000 μM): 28.1%; endogenous eIF4E:eIF4G interaction, electro-chemiluminescent signal, Average (eIF4E:eIF4G interaction [5]; 0.1 μM): 820654.4; endogenous eIF4E:eIF4G interaction, electro-chemiluminescent signal, Average (eIF4E:eIF4G interaction [5]; 1 μM): 641951.8; endogenous eIF4E:eIF4G interaction, electro-chemiluminescent signal, Average (eIF4E:eIF4G interaction [5]; 10 μM): 429514.6; endogenous eIF4E:eIF4G interaction, electro-chemiluminescent signal, Average (eIF4E:eIF4G interaction [5]; 100 μM): 347571.1; EC50 (eIF4E:eIF4G interaction [5]; read-out: EC50, eIF4G:eIF4E binding): ~1500 nM
